The values below come from US20150141381A1, “TETRACYCLINE COMPOUNDS HAVING TARGET THERAPEUTIC ACTIVITIES” (Paratek Pharmaceuticals, Inc., priority 2001, published 2015).

Assay [1] relates to S. aureus RN450. Briefly: In Vitro Anti-Bacterial Activity Assay (MIC), gram positive. The format is cell-based. The settings on record: for MIC: Staphylococcus aureus, RN450, 18 h.
In assay [2] the test system is E. coli mL308 225. Description: In Vitro Anti-Bacterial Activity Assay (MIC), gram negative. The format is cell-based. The settings on record: for MIC: Escherichia coli, ML308225, 18 h.
Where [3] appears, read: gram positive bacteria, read-out: Antibiotic Activity Gram + (MIC).
The mark [4] stands for this setting: gram negative bacteria, read-out: Antibiotic Activity Gram − (MIC).
Setting [5] is: MIC class, Table 3, read-out: Antibiotic Activity Gram +.
Where [6] appears, read: MIC class, Table 3, read-out: Antibiotic Activity Gram −.
Where [7] appears, read: MIC class, Table 3 (Continued), read-out: Gram+ activity.
Where [8] appears, read: MIC class, Table 3 (Continued), read-out: Gram− activity.

Molecules are shown by their SMILES. Like-named read-outs stand apart in the source and are kept apart here. Bounds are passed on as bounds.

Take `CC(=O)Nc1ccc2c(c1O)C(=O)C1=C(O)[C@]3(O)C(=O)C(C(N)=O)=C(O)[C@@H](N(C)C)[C@@H]3C[C@@H]1C2`: the MIC in assay [1] (setting [3]) is under 4 µg/mL; in assay [2] (setting [4]) it was over 4 µg/mL.

As for `COCCOC(=O)NCc1cc(N(C)C)c2c(c1O)C(=O)C1=C(O)[C@]3(O)C(=O)C(C(N)=O)=C(O)[C@@H](N(C)C)[C@@H]3C[C@@H]1C2`, the MIC in assay [1] (setting [3]) is under 4 µg/mL; in assay [2] (setting [4]) it was over 4 µg/mL.

As to `CN(C)[C@@H]1C(O)=C(C(N)=O)C(=O)[C@@]2(O)C(O)=C3C(=O)c4c(O)c(CNC(=O)c5cccnc5)cc(CCC5CCCCC5)c4C[C@H]3C[C@@H]12` [CV], the MIC in assay [1] (setting [5]) was under 4 µg/mL; in assay [2] (setting [6]), over 4 µg/mL.

Regarding `CONC(=O)c1cccc(-c2ccc(O)c3c2C[C@H]2C[C@H]4[C@H](N(C)C)C(O)=C(C(N)=O)C(=O)[C@@]4(O)C(O)=C2C3=O)c1`, the MIC is under 4 µg/mL in assay [1] (setting [3]) and over 4 µg/mL in assay [2] (setting [4]).

Consider `C[C@H]1c2ccc(-c3cccc(CN4CCN(C)CC4)c3)c(O)c2C(=O)C2=C(O)[C@]3(O)C(=O)C(C(N)=O)=C(O)[C@@H](N(C)C)[C@@H]3[C@@H](O)[C@@H]21` [JA], for which the MIC in assay [1] (setting [5]) and in assay [2] (setting [6]) was over 4 µg/mL in each case.

`CN(C)[C@@H]1C(O)=C(C(N)=O)C(=O)[C@@]2(O)C(O)=C3C(=O)c4c(ccc(NC(=O)Nc5cccc6ccccc56)c4O)C[C@H]3C[C@@H]12` [AU]: the MIC in assay [1] (setting [5]) was under 4 µg/mL; in assay [2] (setting [6]) it was over 4 µg/mL.

In the case of `CN(C)[C@@H]1C(O)=C(C(N)=O)C(=O)[C@@]2(O)C(O)=C3C(=O)c4c(O)ccc(-c5ncccn5)c4C[C@H]3C[C@@H]12`, the MIC in assay [1] (setting [3]) and in assay [2] (setting [4]) was under 4 µg/mL in each case.

Take `CN(C)[C@@H]1C(O)=C(C(N)=O)C(=O)[C@@]2(O)C(O)=C3C(=O)c4c(O)cccc4/C(=C\c4ccc(F)cc4)[C@H]3[C@H](O)[C@@H]12`: the MIC in assay [1] (setting [7]) and in assay [2] (setting [8]) was under 4 µg/mL each time.

With `CN(C)c1cc(CN2CCCC2C(F)(F)F)c(O)c2c1C[C@H]1C[C@H]3[C@H](N(C)C)C(O)=C(C(N)=O)C(=O)[C@@]3(O)C(O)=C1C2=O` (some centres unmarked), the MIC in assay [1] (setting [3]) and in assay [2] (setting [4]) was under 4 µg/mL throughout.

In the case of `CN(C)c1ccc(-c2cc(CN)c(O)c3c2C[C@H]2C[C@H]4[C@@H](N(C)C)C(O)=C(C(N)=O)C(=O)[C@@]4(O)C(O)=C2C3=O)cc1` [HQ], the MIC in assay [1] (setting [5]) is under 4 µg/mL; in assay [2] (setting [6]) it was over 4 µg/mL.

With `CN(C)[C@@H]1C(O)=C(C(N)=O)C(=O)[C@@]2(O)C(O)=C3C(=O)c4c(O)ccc(-c5ccccc5Cl)c4C[C@H]3C[C@@H]12`, the MIC in assay [1] (setting [7]) and in assay [2] (setting [8]) was under 4 µg/mL in each case.

For the compound `CN(C)c1cc(CCC2(O)CCCC2)c(O)c2c1C[C@H]1C[C@H]3[C@H](N(C)C)C(O)=C(C(N)=O)C(=O)[C@@]3(O)C(O)=C1C2=O`, the MIC in assay [1] (setting [3]) and in assay [2] (setting [4]) was over 4 µg/mL in each case.

Take `C[C@H]1c2ccc(NC3CCN(C)CC3)c(O)c2C(=O)C2=C(O)[C@]3(O)C(=O)C(C(N)=O)=C(O)[C@@H](N(C)C)[C@@H]3[C@@H](O)[C@@H]21` [JF]: the MIC in assay [1] (setting [5]) and in assay [2] (setting [6]) was under 4 µg/mL each time.

Turning to `CN(C)c1cc(CO)c(O)c2c1C[C@H]1C[C@H]3[C@H](N(C)C)C(O)=C(C(N)=O)C(=O)[C@@]3(O)C(O)=C1C2=O`, the values for the MIC in assay [1] (setting [3]) and in assay [2] (setting [4]) were under 4 µg/mL and over 4 µg/mL, respectively.

For the compound `CN(C)c1cc(CNC(=O)C(Cc2ccccc2)N(C)C)c(O)c2c1C[C@H]1C[C@H]3[C@H](N(C)C)C(O)=C(C(N)=O)C(=O)[C@@]3(O)C(O)=C1C2=O` (some centres unmarked), the MIC in assay [1] (setting [3]) was under 4 µg/mL; in assay [2] (setting [4]) it was over 4 µg/mL.

Regarding `COC(=O)CCC(=O)Nc1ccc2c(c1O)C(=O)C1=C(O)[C@]3(O)C(=O)C(C(N)=O)=C(O)[C@@H](N(C)C)[C@@H]3C[C@@H]1C2` [IB], the MIC in assay [1] (setting [5]) and in assay [2] (setting [6]) was over 4 µg/mL throughout.

Take `CC(CCO)NCc1cc(N(C)C)c2c(c1O)C(=O)C1=C(O)[C@]3(O)C(=O)C(C(N)=O)=C(O)[C@@H](N(C)C)[C@@H]3C[C@@H]1C2` (some centres unmarked): the MIC in assay [1] (setting [3]) was under 4 µg/mL; in assay [2] (setting [4]) it was over 4 µg/mL.

Turning to `CC1CCN(Cc2cc(N(C)C)c3c(c2O)C(=O)C2=C(O)[C@]4(O)C(=O)C(C(N)=O)=C(O)[C@@H](N(C)C)[C@@H]4C[C@@H]2C3)CC1`, the MIC in assay [1] (setting [3]) and in assay [2] (setting [4]) was under 4 µg/mL each time.

Regarding `CN(C)c1ccc(-c2cc(N)c(O)c3c2C[C@H]2C[C@H]4[C@@H](N(C)C)C(O)=C(C(N)=O)C(=O)[C@@]4(O)C(O)=C2C3=O)cc1` [ID], the MIC in assay [1] (setting [5]) is under 4 µg/mL; in assay [2] (setting [6]), over 4 µg/mL.

Regarding `C[C@H]1c2ccc(NC3CC(C)(C)NC(C)(C)C3)c(O)c2C(=O)C2=C(O)[C@]3(O)C(=O)C(C(N)=O)=C(O)[C@@H](N(C)C)[C@@H]3[C@@H](O)[C@@H]21`, the MIC in assay [1] (setting [3]) is under 4 µg/mL; in assay [2] (setting [4]), over 4 µg/mL.

Consider `CN(C)[C@@H]1C(O)=C(C(N)=O)C(=O)[C@@]2(O)C(O)=C3C(=O)c4c(O)ccc(/C=C/c5ccc(N)cc5)c4C[C@H]3C[C@@H]12` [AY], for which the MIC in assay [1] (setting [5]) was under 4 µg/mL; in assay [2] (setting [6]), over 4 µg/mL.

Regarding `CC(C)c1ccc(CNc2cc(N(C)C)c3c(c2O)C(=O)C2=C(O)[C@]4(O)C(=O)C(C(N)=O)=C(O)[C@@H](N(C)C)[C@@H]4C[C@@H]2C3)cc1` [NN], the MIC in assay [1] (setting [5]) was under 4 µg/mL; in assay [2] (setting [6]) it was over 4 µg/mL.

Turning to `Cc1ccc(C#Cc2ccc(O)c3c2C[C@H]2C[C@H]4[C@H](N(C)C)C(O)=C(C(N)=O)C(=O)[C@@]4(O)C(O)=C2C3=O)cc1`, the MIC in assay [1] (setting [7]) and in assay [2] (setting [8]) was under 4 µg/mL in each case.

Take `CN(C)Cc1cc(-c2ccoc2)c2c(c1O)C(=O)C1=C(O)[C@]3(O)C(=O)C(C(N)=O)=C(O)[C@@H](N(C)C)[C@@H]3C[C@@H]1C2`: the MIC was under 4 µg/mL in assay [1] (setting [3]) and over 4 µg/mL in assay [2] (setting [4]).

With `CN(C)[C@@H]1C(O)=C(C(N)=O)C(=O)[C@@]2(O)C(O)=C3C(=O)c4c(O)ccc(-c5cccc([N+](=O)[O-])c5)c4C[C@H]3C[C@@H]12`, the MIC in assay [1] (setting [7]) and in assay [2] (setting [8]) was under 4 µg/mL each time.

For `COc1ccc(NC(=O)Nc2cc(N(C)C)c3c(c2O)C(=O)C2=C(O)[C@]4(O)C(=O)C(C(N)=O)=C(O)[C@@H](N(C)C)[C@@H]4C[C@@H]2C3)cc1` [KB], the results for the MIC in assay [1] (setting [5]) and in assay [2] (setting [6]) were under 4 µg/mL and over 4 µg/mL, respectively.

As to `CN(C)c1cc(-c2ccccn2)c2c(c1O)C(=O)C1=C(O)[C@]3(O)C(=O)C(C(N)=O)=C(O)[C@@H](N(C)C)[C@@H]3C[C@@H]1C2`, the MIC was under 4 µg/mL in assay [1] (setting [3]) and over 4 µg/mL in assay [2] (setting [4]).

`CCCc1cc(N(C)C)c2c(c1O)C(=O)C1=C(O)[C@]3(O)C(=O)C(C(N)=O)=C(O)[C@@H](N(C)C)[C@@H]3C[C@@H]1C2`: the figures for the MIC in assay [1] (setting [3]) and in assay [2] (setting [4]) were under 4 µg/mL and over 4 µg/mL, respectively.

With `CCOC(=O)CNCc1ccc(-c2ccc(O)c3c2C[C@H]2C[C@H]4[C@@H](N(C)C)C(O)=C(C(N)=O)C(=O)[C@@]4(O)C(O)=C2C3=O)cc1` [GK], the MIC in assay [1] (setting [5]) is under 4 µg/mL; in assay [2] (setting [6]), over 4 µg/mL.

With `COCC(C)CN(C)Cc1cc(N(C)C)c2c(c1O)C(=O)C1=C(O)[C@]3(O)C(=O)C(C(N)=O)=C(O)[C@@H](N(C)C)[C@@H]3C[C@@H]1C2` (some centres unmarked), the MIC in assay [1] (setting [3]) is under 4 µg/mL; in assay [2] (setting [4]), over 4 µg/mL.

As to `CN(C)[C@@H]1C(O)=C(C(N)=O)C(=O)[C@@]2(O)C(O)=C3C(=O)c4c(O)ccc(-c5ccc(C#N)cc5)c4C[C@H]3C[C@@H]12`, the MIC in assay [1] (setting [7]) and in assay [2] (setting [8]) was under 4 µg/mL in each case.

Consider `CC(C)Cc1ccc(O)c2c1C[C@H]1C[C@H]3[C@H](N(C)C)C(O)=C(C(N)=O)C(=O)[C@@]3(O)C(O)=C1C2=O`, for which the MIC in assay [1] (setting [3]) and in assay [2] (setting [4]) was under 4 µg/mL each time.

In the case of `CONCc1ccc(-c2cc(N(C)C)c3c(c2O)C(=O)C2=C(O)[C@]4(O)C(=O)C(C(N)=O)=C(O)[C@@H](N(C)C)[C@@H]4C[C@@H]2C3)[nH]1`, the MIC in assay [1] (setting [3]) and in assay [2] (setting [4]) was under 4 µg/mL throughout.

For `CN(C)c1cc(CNCC23CC4CC(CC(C4)C2)C3)c(O)c2c1C[C@H]1C[C@H]3[C@H](N(C)C)C(O)=C(C(N)=O)C(=O)[C@@]3(O)C(O)=C1C2=O`, the MIC in assay [1] (setting [3]) and in assay [2] (setting [4]) was under 4 µg/mL each time.

For `CN1CCC(N(C)c2ccc3c(c2O)C(=O)C2=C(O)[C@]4(O)C(=O)C(C(N)=O)=C(O)[C@@H](N(C)C)[C@@H]4C[C@@H]2C3)CC1`, the MIC in assay [1] (setting [3]) and in assay [2] (setting [4]) was over 4 µg/mL each time.

Regarding `C[C@H]1c2ccc(CNCCc3ccccc3)c(O)c2C(=O)C2=C(O)[C@]3(O)C(=O)C(C(N)=O)=C(O)[C@@H](N(C)C)[C@@H]3[C@@H](O)[C@@H]21` [JI], the MIC in assay [1] (setting [5]) and in assay [2] (setting [6]) was under 4 µg/mL throughout.

In the case of `COc1ccc(CN(C)C)cc1-c1ccc(O)c2c1C[C@H]1C[C@H]3[C@H](N(C)C)C(O)=C(C(N)=O)C(=O)[C@@]3(O)C(O)=C1C2=O` [CJ], the MIC in assay [1] (setting [5]) and in assay [2] (setting [6]) was under 4 µg/mL in each case.

For `CCOC(=O)CNCc1ccc(-c2ccc(O)c3c2C[C@H]2C[C@H]4[C@H](N(C)C)C(O)=C(C(N)=O)C(=O)[C@@]4(O)C(O)=C2C3=O)c2ccccc12`, the MIC in assay [1] (setting [3]) and in assay [2] (setting [4]) was under 4 µg/mL each time.

As to `CN(C)c1cc(CNCCC(F)(F)F)c(O)c2c1C[C@H]1C[C@H]3[C@H](N(C)C)C(O)=C(C(N)=O)C(=O)[C@@]3(O)C(O)=C1C2=O` [drawing 3690], in assay [1] (gram positive bacteria), the “Antibiotic Activity Gram + (MIC)” value is “** (compounds with MIC less than or equal to 4 μg/ml are indicated with **)”. In addition, the “Antibiotic Activity Gram − (MIC)” value in assay [2] (gram negative bacteria) is listed as “** (compounds with MIC less than or equal to 4 μg/ml are indicated with **)”.

On to `COC(=O)O[C@@]12C(=O)C(C(N)=O)=C(O)[C@@H](N(C)C)[C@@H]1C[C@@H]1Cc3cccc(O)c3C(=O)C1=C2O`, for which the MIC in assay [1] (setting [3]) and in assay [2] (setting [4]) was over 4 µg/mL in each case.
